Experimental data published in patent US20260028365A1 (BIOGEN MA INC., priority 2022, published 2026).

Columns and labels:
JH2 domain of human Tyk2 = JH2 domain of human Tyk2 (Homo sapiens (Human), UniProt P29597); assay: JH2 Biochemical Assay (TR-FRET probe displacement); format: binding; conditions: JH2 domain of human Tyk2, TR-FRET probe displacement
Tyk2 = Tyk2 (Homo sapiens (Human), UniProt P29597); assay: pSTAT4 Cell Assay (MSD, NK92 cells); format: cell-based; conditions: MSD
Chain of Tyk2 (P29597 whole entry): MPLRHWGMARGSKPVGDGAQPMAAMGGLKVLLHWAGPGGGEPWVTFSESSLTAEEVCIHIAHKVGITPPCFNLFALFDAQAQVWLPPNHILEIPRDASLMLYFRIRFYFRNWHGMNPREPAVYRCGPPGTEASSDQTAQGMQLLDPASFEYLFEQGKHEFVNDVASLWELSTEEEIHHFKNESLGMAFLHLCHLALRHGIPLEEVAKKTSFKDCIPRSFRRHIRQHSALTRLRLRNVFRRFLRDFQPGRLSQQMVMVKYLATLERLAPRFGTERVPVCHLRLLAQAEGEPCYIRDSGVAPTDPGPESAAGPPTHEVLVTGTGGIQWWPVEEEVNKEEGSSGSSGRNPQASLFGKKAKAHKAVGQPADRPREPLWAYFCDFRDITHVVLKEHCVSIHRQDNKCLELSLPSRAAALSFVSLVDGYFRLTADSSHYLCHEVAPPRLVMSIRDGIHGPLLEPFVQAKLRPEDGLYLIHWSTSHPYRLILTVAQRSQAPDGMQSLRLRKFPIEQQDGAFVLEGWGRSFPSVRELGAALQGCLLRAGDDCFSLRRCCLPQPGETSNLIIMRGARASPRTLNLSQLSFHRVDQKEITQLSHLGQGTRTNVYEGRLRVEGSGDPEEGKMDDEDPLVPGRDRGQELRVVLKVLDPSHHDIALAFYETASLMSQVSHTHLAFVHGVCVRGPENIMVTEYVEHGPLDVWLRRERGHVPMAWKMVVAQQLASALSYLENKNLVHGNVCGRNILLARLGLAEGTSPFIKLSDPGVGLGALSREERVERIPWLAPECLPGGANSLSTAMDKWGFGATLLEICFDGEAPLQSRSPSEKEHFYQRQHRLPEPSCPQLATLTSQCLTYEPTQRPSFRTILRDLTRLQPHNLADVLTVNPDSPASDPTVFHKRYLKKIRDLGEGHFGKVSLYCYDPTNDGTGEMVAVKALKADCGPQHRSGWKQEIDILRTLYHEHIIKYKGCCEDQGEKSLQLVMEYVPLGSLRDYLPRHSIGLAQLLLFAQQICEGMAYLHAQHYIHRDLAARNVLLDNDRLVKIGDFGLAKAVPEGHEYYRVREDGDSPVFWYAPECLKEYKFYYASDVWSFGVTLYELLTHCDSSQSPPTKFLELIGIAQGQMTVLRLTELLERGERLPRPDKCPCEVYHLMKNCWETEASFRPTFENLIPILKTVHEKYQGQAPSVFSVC

Chain of JH2 domain of human Tyk2 (P29597 575-876): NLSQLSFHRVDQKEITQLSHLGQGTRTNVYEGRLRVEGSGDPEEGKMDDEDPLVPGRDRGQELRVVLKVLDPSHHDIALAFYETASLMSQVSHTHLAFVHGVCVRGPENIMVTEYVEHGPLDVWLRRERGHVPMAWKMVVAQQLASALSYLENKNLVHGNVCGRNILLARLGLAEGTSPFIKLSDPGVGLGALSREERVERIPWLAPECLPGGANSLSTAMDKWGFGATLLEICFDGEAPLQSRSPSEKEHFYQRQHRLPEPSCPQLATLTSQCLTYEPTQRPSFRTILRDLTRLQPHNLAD

For `CC(=O)Nc1cc(Nc2ccnc(C(C)(F)F)n2)c(-c2cnc(COC(F)F)cn2)cn1` [Example 692, N-(4-((2-(1,1-difluoroethyl)pyrimidin-4-yl)amino)-5-(5-((difluoromethoxy)methyl)pyrazin-2-yl)pyridin-2-yl)acetamide], the IC50 (JH2 domain of human Tyk2) was ≤ 10 nM and the IC50 (Tyk2) was 100 to 1000 nM.
With `CC(=O)Nc1cc(Nc2ccnc(C(C)(F)F)n2)c(-c2cnc(C3CC3)cn2)cn1` [Example 694, N-(5-(5-cyclopropylpyrazin-2-yl)-4-((2-(1,1-difluoroethyl)pyrimidin-4-yl)amino)pyridin-2-yl)acetamide] the IC50 (JH2 domain of human Tyk2) was ≤ 10 nM and the IC50 (Tyk2) was 10 to 100 nM.
In the case of `CC(=O)Nc1cc(Nc2ccnc(C(C)(F)F)n2)c(-c2cnc(C(C)(F)F)cn2)cn1` [Example 695, N-(5-(5-(1,1-difluoroethyl)pyrazin-2-yl)-4-((2-(1,1-difluoroethyl)pyrimidin-4-yl)amino)pyridin-2-yl)acetamide], the IC50 (JH2 domain of human Tyk2) is reported as ≤ 10 nM and the IC50 (Tyk2) is reported as 100 to 1000 nM.
For `COCc1nccc(-c2cnc(NC(C)=O)cc2Nc2ccnc(C(C)(F)F)n2)n1` [Example 696, N-(4-((2-(1,1-difluoroethyl)pyrimidin-4-yl)amino)-5-(2-(methoxymethyl)pyrimidin-4-yl)pyridin-2-yl)acetamide], the IC50 (JH2 domain of human Tyk2) was ≤ 10 nM and the IC50 (Tyk2) was ≤ 10 nM.
`CC(=O)Nc1cc(Nc2ccnc(C(C)(F)F)n2)c(-c2ncc(Cl)cn2)cn1` [Example 697, N-(5-(5-chloropyrimidin-2-yl)-4-((2-(1,1-difluoroethyl)pyrimidin-4-yl)amino)pyridin-2-yl)acetamide] was tested, and the IC50 (JH2 domain of human Tyk2) was ≤ 10 nM and the IC50 (Tyk2) was 10 to 100 nM.
Compound `CC(=O)Nc1cc(Nc2ccnc(C(C)(F)F)n2)c(-c2ncccc2F)cn1` [Example 698, N-(4′-((2-(1,1-difluoroethyl)pyrimidin-4-yl)amino)-3-fluorO[2,3′-bipyridin]-6′-yl)acetamide] has an IC50 (JH2 domain of human Tyk2) of 10 to 100 nM and an IC50 (Tyk2) of 100 to 1000 nM.
For `COc1cc(-c2cnc(NC(C)=O)cc2Nc2ccnc(C(C)(F)F)n2)ncc1F` [Example 699, N-(4′-((2-(1,1-difluoroethyl)pyrimidin-4-yl)amino)-5-fluorO4-methoxy-[2,3′-bipyridin]-6′-yl)acetamide], the IC50 (JH2 domain of human Tyk2) was 10 to 100 nM and the IC50 (Tyk2) was ≥ 1000 nM.
With `CC(=O)Nc1cc(Nc2ccnc(C(C)(F)F)n2)c(-c2cc(C)ccn2)cn1` [Example 700, N-(4′-((2-(1,1-difluoroethyl)pyrimidin-4-yl)amino)-4-methyl-[2,3′-bipyridin]-6′-yl)acetamide] the IC50 (JH2 domain of human Tyk2) was ≤ 10 nM and the IC50 (Tyk2) was 10 to 100 nM.
For `CC(=O)Nc1cc(Nc2ccnc(C(C)(F)F)n2)c(-c2cc(C)c(C#N)cn2)cn1` [Example 701, N-(5-cyanO4′-((2-(1,1-difluoroethyl)pyrimidin-4-yl)amino)-4-methyl-[2,3′-bipyridin]-6′-yl)acetamide], the IC50 (JH2 domain of human Tyk2) was ≤ 10 nM and the IC50 (Tyk2) was ≤ 10 nM.
For `CC(=O)Nc1cc(Nc2ccnc(C(C)(F)F)n2)c(-c2ccc(CN3C[C@H]4C[C@@H](C3)O4)cn2)cn1` [Example 702, N-(5-(((1R,5S)-6-oxa-3-azabicyclo[3.1.1]heptan-3-yl)methyl)-4′-((2-(1,1-difluoroethyl)pyrimidin-4-yl)amino)-[2,3′-bipyridin]-6′-yl)acetamide], the IC50 (JH2 domain of human Tyk2) was ≤ 10 nM and the IC50 (Tyk2) was ≤ 10 nM.
`CC(=O)Nc1cc(Nc2ccnc(C(C)(F)F)n2)c(-c2ccc(CN3CCC4(COC4)C3)cn2)cn1` [Example 703, N-(5-((2-oxa-6-azaspiro[3.4]octan-6-yl)methyl)-4′-((2-(1,1-difluoroethyl)pyrimidin-4-yl)amino)-[2,3′-bipyridin]-6′-yl)acetamide] was tested, and the IC50 (JH2 domain of human Tyk2) was ≤ 10 nM and the IC50 (Tyk2) was ≤ 10 nM.
`CC(=O)Nc1cc(Nc2ccnc(C(C)(F)F)n2)c(-c2ccn(CC3CC3)n2)cn1` [Example 704, N-(5-(1-(cyclopropylmethyl)-1H-pyrazol-3-yl)-4-((2-(1,1-difluoroethyl)pyrimidin-4-yl)amino)pyridin-2-yl)acetamide] was tested, and the IC50 (JH2 domain of human Tyk2) was ≤ 10 nM and the IC50 (Tyk2) was ≤ 10 nM.
With `CCCn1ccc(-c2cnc(NC(C)=O)cc2Nc2ccnc(C(C)(F)F)n2)n1` [Example 705, N-(4-((2-(1,1-difluoroethyl)pyrimidin-4-yl)amino)-5-(1-propyl-1H-pyrazol-3-yl)pyridin-2-yl)acetamide] the IC50 (JH2 domain of human Tyk2) was ≤ 10 nM and the IC50 (Tyk2) was ≤ 10 nM.
`CCn1ccc(-c2cnc(NC(C)=O)cc2Nc2ccnc(C(C)(F)F)n2)n1` [Example 706, N-(4-((2-(1,1-difluoroethyl)pyrimidin-4-yl)amino)-5-(1-ethyl-1H-pyrazol-3-yl)pyridin-2-yl)acetamide] was tested, and the IC50 (JH2 domain of human Tyk2) was ≤ 10 nM and the IC50 (Tyk2) was ≤ 10 nM.
`CCn1ncc(-c2cnc(NC(C)=O)cc2Nc2ccnc(C(C)(F)F)n2)n1` [Example 709, N-(4-((2-(1,1-difluoroethyl)pyrimidin-4-yl)amino)-5-(2-ethyl-2H-1,2,3-triazol-4-yl)pyridin-2-yl)acetamide] was tested, and the IC50 (JH2 domain of human Tyk2) was ≤ 10 nM and the IC50 (Tyk2) was 10 to 100 nM.
`COCn1ncc(-c2cnc(NC(C)=O)cc2Nc2ccnc(C(C)(F)F)n2)n1` [Example 711, N-(4-((2-(1,1-difluoroethyl)pyrimidin-4-yl)amino)-5-(2-(methoxymethyl)-2H-1,2,3-triazol-4-yl)pyridin-2-yl)acetamide] was tested, and the IC50 (JH2 domain of human Tyk2) was ≤ 10 nM and the IC50 (Tyk2) was 10 to 100 nM.
`COc1nc(-c2cnc(NC(C)=O)cc2Nc2ccnc(C(C)(F)F)n2)cs1` [Example 712, N-(4-((2-(1,1-difluoroethyl)pyrimidin-4-yl)amino)-5-(2-methoxythiazol-4-yl)pyridin-2-yl)acetamide] was tested, and the IC50 (JH2 domain of human Tyk2) was ≤ 10 nM and the IC50 (Tyk2) was ≤ 10 nM.
`CCc1nnc(-c2cnc(NC(C)=O)cc2Nc2ccnc(C(C)(F)F)n2)s1` [Example 714, N-(4-((2-(1,1-difluoroethyl)pyrimidin-4-yl)amino)-5-(5-ethyl-1,3,4-thiadiazol-2-yl)pyridin-2-yl)acetamide] was tested, and the IC50 (JH2 domain of human Tyk2) was ≤ 10 nM and the IC50 (Tyk2) was ≤ 10 nM.
With `CC(=O)Nc1cc(Nc2ccnc(C(C)(F)F)n2)c(-c2nc(C)ns2)cn1` [Example 716, N-(4-((2-(1,1-difluoroethyl)pyrimidin-4-yl)amino)-5-(3-methyl-1,2,4-thiadiazol-5-yl)pyridin-2-yl)acetamide] the IC50 (JH2 domain of human Tyk2) was ≤ 10 nM and the IC50 (Tyk2) was 10 to 100 nM.
For `CC(=O)Nc1cc(Nc2ccnc(C(C)(F)F)n2)c(-c2ccc3c(n2)CCC3=O)cn1` [Example 718, N-(4-((2-(1,1-difluoroethyl)pyrimidin-4-yl)amino)-5-(5-oxO6,7-dihydrO5H-cyclopenta[b]pyridin-2-yl)pyridin-2-yl)acetamide], the IC50 (JH2 domain of human Tyk2) was ≤ 10 nM and the IC50 (Tyk2) was 10 to 100 nM.
`CCc1cc(Nc2cc(NC(C)=O)ncc2-c2ccnc(COC)n2)nc(C(C)(F)F)n1` [Example 720, N-(4-((2-(1,1-difluoroethyl)-6-ethylpyrimidin-4-yl)amino)-5-(2-(methoxymethyl)pyrimidin-4-yl)pyridin-2-yl)acetamide] was tested, and the IC50 (JH2 domain of human Tyk2) was ≤ 10 nM and the IC50 (Tyk2) was ≤ 10 nM.
In the case of `CC(=O)Nc1cc(Nc2cncc(C(C)(C)F)c2)c(-c2ccc(C(C)(C)O)cn2)cn1` [Example 722, N-(4′-((5-(2-fluoropropan-2-yl)pyridin-3-yl)amino)-5-(2-hydroxypropan-2-yl)-[2,3′-bipyridin]-6′-yl)acetamide], the IC50 (JH2 domain of human Tyk2) is reported as ≤ 10 nM and the IC50 (Tyk2) is reported as ≤ 10 nM.
For `CC(=O)Nc1cc(Nc2cc(C)nc(C(C)(C)F)n2)c(-c2ncc(F)cn2)cn1` [Example 723, N-(4-((2-(2-fluoropropan-2-yl)-6-methylpyrimidin-4-yl)amino)-5-(5-fluoropyrimidin-2-yl)pyridin-2-yl)acetamide], the IC50 (JH2 domain of human Tyk2) was ≤ 10 nM and the IC50 (Tyk2) was 10 to 100 nM.
With `CC(=O)Nc1cc(Nc2ccnc(C(C)(F)F)n2)c(-n2cc(C)cn2)cn1` [Example 728, N-(4-((2-(1,1-difluoroethyl)pyrimidin-4-yl)amino)-5-(4-methyl-1H-pyrazol-1-yl)pyridin-2-yl)acetamide] the IC50 (JH2 domain of human Tyk2) was ≤ 10 nM and the IC50 (Tyk2) was 10 to 100 nM.
In the case of `CC(=O)Nc1cc(Nc2cc(C)nc(C(C)(F)F)n2)c(-n2cc(C)cn2)cn1` [Example 729, N-(4-((2-(1,1-difluoroethyl)-6-methylpyrimidin-4-yl)amino)-5-(4-methyl-1H-pyrazol-1-yl)pyridin-2-yl)acetamide], the IC50 (JH2 domain of human Tyk2) is reported as ≤ 10 nM and the IC50 (Tyk2) is reported as ≤ 10 nM.
In the case of `COc1cnn(-c2cnc(NC(C)=O)cc2Nc2ccnc(C(C)(F)F)n2)c1` [Example 730, N-(4-((2-(1,1-difluoroethyl)pyrimidin-4-yl)amino)-5-(4-methoxy-1H-pyrazol-1-yl)pyridin-2-yl)acetamide], the IC50 (JH2 domain of human Tyk2) is reported as 10 to 100 nM and the IC50 (Tyk2) is reported as 100 to 1000 nM.
`COc1cnn(-c2cnc(NC(C)=O)cc2Nc2cc(C)nc(C(C)(F)F)n2)c1` [Example 731, N-(4-((2-(1,1-difluoroethyl)-6-methylpyrimidin-4-yl)amino)-5-(4-methoxy-1H-pyrazol-1-yl)pyridin-2-yl)acetamide] was tested, and the IC50 (JH2 domain of human Tyk2) was ≤ 10 nM and the IC50 (Tyk2) was 10 to 100 nM.
For `CC(=O)Nc1cc(Nc2cc(C)nc(C(C)(F)F)n2)c(-n2cc(C#N)cn2)cn1` [Example 733, N-(5-(4-cyanO1H-pyrazol-1-yl)-4-((2-(1,1-difluoroethyl)-6-methylpyrimidin-4-yl)amino)pyridin-2-yl)acetamide], the IC50 (JH2 domain of human Tyk2) was ≤ 10 nM and the IC50 (Tyk2) was 100 to 1000 nM.
For `CC(=O)Nc1cc(Nc2ccnc(C(C)(F)F)n2)c(-c2cc3n(n2)CCN(CC#N)C3)cn1` [Example 736, N-(5-(5-(cyanomethyl)-4,5,6,7-tetrahydropyrazolo[1,5-a]pyrazin-2-yl)-4-((2-(1,1-difluoroethyl)pyrimidin-4-yl)amino)pyridin-2-yl)acetamide], the IC50 (JH2 domain of human Tyk2) was ≤ 10 nM and the IC50 (Tyk2) was ≤ 10 nM.
For `CC(=O)Nc1cc(Nc2cc(C)nc(C(C)(F)F)n2)c(-c2ncc(CN(C)C)s2)cn1` [Example 737, N-(4-((2-(1,1-difluoroethyl)-6-methylpyrimidin-4-yl)amino)-5-(5-((dimethylamino)methyl)thiazol-2-yl)pyridin-2-yl)acetamide], the IC50 (JH2 domain of human Tyk2) was ≤ 10 nM and the IC50 (Tyk2) was ≤ 10 nM.
For `CC(=O)Nc1cc(Nc2cc(C)nc(C(C)(F)F)n2)c(-c2ncc(CN3CCCC3)s2)cn1` [Example 738, N-(4-((2-(1,1-difluoroethyl)-6-methylpyrimidin-4-yl)amino)-5-(5-(pyrrolidin-1-ylmethyl)thiazol-2-yl)pyridin-2-yl)acetamide], the IC50 (JH2 domain of human Tyk2) was ≤ 10 nM and the IC50 (Tyk2) was ≤ 10 nM.
